Literature values as cited in paper PMC4257705 (Organic letters, 2009).

Biological target: αVβ3
Conditions: tripeptide sequence Arg-Gly-Asp (RGD)

Arg-Gly-Asp [RGD]
Kd: ~1 nM
